Read-outs that look alike come from different tables or passages of the source.
Experiments:
[1] = solubility of PMIDA; format: physicochemical; settings: room temperature
Excerpt: The solubility of the PMIDA in the MSA and the ability of both the MSA and the PMIDA to remove acid-soluble materials of the present disclosure synergistically operate to continuously remove acid-soluble materials at deeper far-field locations than traditional acid fluids, which may become spent prior to reaching such deep areas.
In the working temperature range of the treatment fluid, as described above, the PMIDA may be solubilized in the MSA of the treatment fluids described herein. In some embodiments, the PMIDA is about 5% w/v soluble at room temperature in a solution of about 70% MSA in an aqueous base fluid, described below. In other embodiments, higher w/v concentrations of PMIDA may be prepared using varied solutions of MSA alone or in combination with an aqueous base fluid, which will undergo different dissolution amounts depending on the working temperature of the treatment fluid. Each of these values is critical to the embodiments described herein and may depend on a number of factors including, but not limited to, the working temperature of the treatment fluid (e.g., the temperature or temperature range of the subterranean formation being treated), the amount of MSA in the treatment fluid relative to the PMIDA, the amount of PMIDA in the treatment fluid relative to the MSA, and the like.

[2] = 25° C.; cited from earlier work
[3] = cited from earlier work

| Molecule | soluble in a solution of about 70% MSA in an aqueous base fluid [1] | solubility in water [2] | pKa ([3]; 25° C. in dimethyl sulfoxide) | pKa ([3]; 25° C. in water) |
| --- | --- | --- | --- | --- |
| O=C(O)CN(CC(=O)O)CP(=O)(O)O [PMIDA, N-(phosphonomethyl)iminodiacetic acid] | about 5 % w/v | < 0.5 mg/mL | – | – |
| methanesulfonic acid [MSA] | – | – | about 1.6 | −1.9 |
